Test results taken from publication PMC4263767, “IL-28B is a Key Regulator of B- and T-Cell Vaccine Responses against Influenza” (PLoS Pathogens, 2014).
“Also recorded” adds a separate entry of the source. Where two headings read alike, the source gives them in different places.

Key:
[1] = test system: PBMCs from healthy volunteers; assay: IL-28A, IL-28B and IL-29 mRNA expression in H1N1-stimulated PBMCs; type: cell-based, human; settings: MMF various concentrations 2 h before 6 h H1N1; n = 25
Description: (A) PBMCs from healthy volunteers were stimulated for six-hours with H1N1. mRNA-expression of IL-28A, IL-28B and IL-29 were normalized to non-stimulated controls and HPRT expression. Major (rs8099917 TT, n = 28) compared to minor (rs8099917 non-TT, n = 21) allele genotype. MWU-test determined statistically significant differences between groups. Bars show median values with interquartile range. (B) PBMCs from healthy volunteers (n = 25) were pre-treated with mycophenolate mofetil for 2 h prior to stimulated for six-hours with H1N1. mRNA-expression of IL-28A, IL-28B and IL-29 and statistical analysis were performed using the Kruskal Wallis (KW) test.
IL-28B primers and probe were designed based on Homo sapiens IL-28B mRNA-sequence (NM_172139.2) using Primer3 Input (version 0.4.0) (http://frodo.wi.mit.edu/). The forward primer (IL-28BF1: […]) spans the exon/exon junction of exons 1 and 2 of IL-28B. The IL-28B-specific probe (IL-28B probe: […] ) is located in the second exon and the reverse primer (IL-28BR1: […]) is in the third exon of the IL-28B gene. […]
The specificity of the three sets of qRT PCR assays was tested against Invivogen expression plasmids containing complete IL-28A (puno1-hIL-28A), IL-28B (puno1-hIL-28B) and IL-29 (punoIL-29) sequences. The specificity of all qRT PCR assays has been previously assessed. […]

transplant recipients = settings: MMF; ref [28], [48]; cited from earlier work
[2] = test system: IL28RA (IL-28 receptor alpha subunit); assay: ELISA competition assay, binding of IL-28B to IL28RA; settings: for inhibition of IFN-λ / IL-28B binding to IL28RA (in words): peptides 10 µM, or increasing 10 nM to 100 µM; for binding affinity to IL28RA (in words): discussion
Source text: Recombinant IL28RA was coated on an ELISA plate and pre-treated with increasing concentrations of peptides. […] Anti-his secondary antibody was used to determine the relative amount of bound IFN-λ to the IL28RA. These dose-response curves allowed us to determine the effectiveness of binding inhibition of each peptide.
(C) Inhibitory activity of peptides against IL-28B to IL28RA. […] Bars indicate median values, whiskers inter-quartile ranges. The graph represents three independently repeated experiments. (D) Inhibitory activity of scrambled peptides against IL-28B to IL28RA. ELISA was used to measure the binding of a fixed concentration of IL-28B (100 ng/mL) to the IL28RA challenged by a fixed concentration of control peptides (10 µM; s, scramble). The median value representing three independently repeated experiments is shown. Whiskers indicate the interquartile range.

[3] = test system: PBMCs from healthy volunteers; type: cell-based, human; settings: peptides 2 h prior to 5-day H1N1 stimulation, compared to peptide controls
[4] = test system: T-cells, monocytes and macrophages; settings: ref [18]–[21]; cited from earlier work
Source text: The IFN-λ family (Interleukin-28A, -28B, -29, and IFN-λ4) is a recently described class of IFNs with antiviral properties similar to IFN-α and -β [14]–[17]. IFN-λ is known to induce phosphorylation of STAT-1 and -2 via binding to its receptor, which is a heterodimer consisting of the IL-28 receptor alpha subunit (IL28RA) and IL-10 receptor beta subunit (IL10RB). […] Furthermore, IFN-λs induced the development of T-regu ... || IL-28B (IFN-λ3) belongs to the family of IFN-lambdas and shares antiviral properties similar to IFN-α via induction of interferon stimulated genes (ISGs) such as MX1 or OAS1 [41]. […] IL-12 is a key cytokine for the induction of Th1 cells and cytotoxic lymphocytes, [43]. SNPs in the IL-28B gene (minor-allele genotypes) have been associated with reduced IL-28B expression, [29]–[33], which could impact adaptive immune functions during vaccination. One limitation of our study is that we d ...

IL28RA = settings: reference not given; cited from earlier work
Source text: An important strength of our study is the use of a clinical cohort including immunosuppressed transplant recipients to confirm our findings in the clinical setting. We then sought to define additional observations to support our clinical findings making our study unique. One limitation of our study is the heterogeneity of the transplant cohort due to a variety of underlying conditions leading to organ failure. […] In addition, we have shown that mycophenolate mofetil (MMF) and the IL-28B major-allele ...

H1N1 stimulated PBMCs = type: cell-based, human; settings: control peptides added twice during expansion phase
[5] = competition ELISA, IL-28B 100 ng/mL

In the case of COc1c(C)c2c(c(O)c1C/C=C(\C)CCC(=O)OCCN1CCOCC1)C(=O)OC2 [MMF, mycophenolate mofetil], the “IFN-λ (IL-28A, IL-28B, IL-29) mRNA expression profiles” value [1] is given as “no difference in IFN-λ expression profiles; also recorded: not influenced” and the “effect on influenza vaccine responses” value (transplant recipients) is given as “significantly suppress influenza vaccine responses”.

In the case of ASVTFNLFRLLTRDLKY [peptide 6], the “inhibition of IFN-λ / IL-28B binding to IL28RA (in words)” value (“inhibition of IFN-λ / IL-28B binding” below) [2, 5] is reported as “strong potential to inhibit binding of IFN-λs”, the “binding affinity to IL28RA (in words)” value [2] is reported as “high binding affinities to IL28RA” and the “H1N1-induced IgG production (in words)” value [3] is reported as “ability to significantly increase in vitro H1N1-induced IgG production”.

For ELASFKKARDALEESLKL [peptide 1], the “reduction of the binding of IL-28B to IL28RA” value ([2]; competition ELISA, IL-28B 100 ng/mL, peptide 10 µM (S5C/S5D Figure), median of three independent experiments) was 71%, the “inhibition of IFN-λ / IL-28B binding” value [2, 5] was “potent specific dose dependent inhibitory blocking effect” and the “inhibition of IFN-λ / IL-28B binding” value ([2]; competition ELISA, IL-28B 100 ng/mL, listed as peptides 1) was “strong potential to inhibit binding of IFN-λs”. The “binding affinity to IL28RA (in words)” value [2] was “high binding affinities to IL28RA”, the “H1N1-induced IgG production (in words)” value ([3]; listed as Peptides 1) was “strong trend for higher H1N1-induced IgG secretion” and the “H1N1-induced IgG production (in words)” value ([3]; listed as peptides 1) was “ability to significantly increase in vitro H1N1-induced IgG production”.

In the case of IL-29: one of the IFN-λ family members, the “Th1 and Th2 cytokine producing T-cells” value [4] is listed as “increase Th1 and suppress Th2 cytokine producing T-cells” and the “binding affinity towards IL28RA compared to IL-28B” value (IL28RA) is listed as “significantly greater binding affinity”.

For penetratin, the “unspecific stimulatory effect on H1N1 stimulated IgG production” value (H1N1 stimulated PBMCs) was “No unspecific effect could be observed”.
